Holding throughout (experiment): AK assay 384-well format, Prestwick library screening
Assay [1] has as its system E. cloacae. The class given is cell-based, Enterobacter cloacae. The conditions noted are these: for fold induction at 50 µM: Enterobacter cloacae, 3 h.
Assay [2] has as its system E. coli. The class given is cell-based, Escherichia coli. The settings on record: for fold induction at 50 µM: Escherichia coli, 3 h.
The subject of assay [3] is E. faecium. It counts as cell-based, Enterococcus faecium. The conditions noted are these: for fold induction at 50 µM: Enterococcus faecium, 3 h.
Assay [4] concerns P. aeruginosa. The class given is cell-based, Pseudomonas aeruginosa. The settings on record: for fold induction at 50 µM: Pseudomonas aeruginosa, 3 h.
The subject of assay [5] is K. pneumoniae. The class given is cell-based, Klebsiella pneumoniae. The conditions noted are these: for fold induction at 50 µM: Klebsiella pneumoniae, 3 h.
Assay [6] relates to S. aureus strain USA300-0114. The class given is cell-based, Staphylococcus aureus. The conditions noted are these: for fold induction at 50 µM: Staphylococcus aureus, USA300, 3 h.
The subject of assay [7] is A. baumannii strain 98-37-09. The class given is cell-based, Acinetobacter baumannii. The settings on record: for fold induction at 50 µM: Acinetobacter baumannii, 983709, 3 h.
The mark [8] stands for this setting: 50 μM final drug concentration, cutoff for positive-scoring molecules 3-fold increase, read-out: AK-based Prestwick Library Screening Results, E. cloacae (fold increase in extracellular AK activity).
The mark [9] stands for this setting: 50 μM final drug concentration, cutoff for positive-scoring molecules 3-fold increase, read-out: AK-based Prestwick Library Screening Results, E. coli (fold increase in extracellular AK activity).
Setting [10] is: 50 μM final drug concentration, cutoff for positive-scoring molecules 3-fold increase, read-out: AK-based Prestwick Library Screening Results, E. faecium (fold increase in extracellular AK activity).
[11] abbreviates: 50 μM final drug concentration, cutoff for positive-scoring molecules 3-fold increase, read-out: AK-based Prestwick Library Screening Results, P. aeruginosa (fold increase in extracellular AK activity).
The mark [12] stands for this setting: 50 μM final drug concentration, cutoff for positive-scoring molecules 3-fold increase, read-out: AK-based Prestwick Library Screening Results, K. pneumoniae (fold increase in extracellular AK activity).
[13] abbreviates: 50 μM final drug concentration, cutoff for positive-scoring molecules 3-fold increase, read-out: AK-based Prestwick Library Screening Results, S. aureus (fold increase in extracellular AK activity).
Setting [14] is: 50 μM final drug concentration, cutoff for positive-scoring molecules 3-fold increase, read-out: AK-based Prestwick Library Screening Results, A. baumannii (fold increase in extracellular AK activity).
Where [15] appears, read: 50 μM final drug concentration, planktonic, cutoff for positive-scoring molecules 3-fold increase, read-out: AK-based Prestwick Library Screening Results, E. cloacae (fold increase in extracellular AK activity).
The mark [16] stands for this setting: 50 μM final drug concentration, planktonic, cutoff for positive-scoring molecules 3-fold increase, read-out: AK-based Prestwick Library Screening Results, E. coli (fold increase in extracellular AK activity).
The mark [17] stands for this setting: 50 μM final drug concentration, planktonic, cutoff for positive-scoring molecules 3-fold increase, read-out: AK-based Prestwick Library Screening Results, E. faecium (fold increase in extracellular AK activity).
Where [18] appears, read: 50 μM final drug concentration, planktonic, cutoff for positive-scoring molecules 3-fold increase, read-out: AK-based Prestwick Library Screening Results, P. aeruginosa (fold increase in extracellular AK activity).
The mark [19] stands for this setting: 50 μM final drug concentration, planktonic, cutoff for positive-scoring molecules 3-fold increase, read-out: AK-based Prestwick Library Screening Results, K. pneumoniae (fold increase in extracellular AK activity).
Where [20] appears, read: 50 μM final drug concentration, planktonic, cutoff for positive-scoring molecules 3-fold increase, read-out: AK-based Prestwick Library Screening Results, S. aureus (fold increase in extracellular AK activity).
[21] abbreviates: 50 μM final drug concentration, planktonic, cutoff for positive-scoring molecules 3-fold increase, read-out: AK-based Prestwick Library Screening Results, A. baumannii (fold increase in extracellular AK activity).
Where [22] appears, read: planktonic E. cloacae, 50 μM final drug concentration, cutoff for positive-scoring molecules 3-fold increase, read-out: AK-based Prestwick Library Screening Results, E. cloacae (increase in extracellular AK activity).
[23] abbreviates: planktonic E. coli, 50 μM final drug concentration, cutoff for positive-scoring molecules 3-fold increase, read-out: AK-based Prestwick Library Screening Results, E. coli (increase in extracellular AK activity).
Setting [24] is: planktonic E. faecium, 50 μM final drug concentration, cutoff for positive-scoring molecules 3-fold increase, read-out: AK-based Prestwick Library Screening Results, E. faecium (increase in extracellular AK activity).
[25] abbreviates: planktonic P. aeruginosa, 50 μM final drug concentration, cutoff for positive-scoring molecules 3-fold increase, read-out: AK-based Prestwick Library Screening Results, P. aeruginosa (increase in extracellular AK activity).
Where [26] appears, read: planktonic K. pneumoniae, 50 μM final drug concentration, cutoff for positive-scoring molecules 3-fold increase, read-out: AK-based Prestwick Library Screening Results, K. pneumoniae (increase in extracellular AK activity).
The mark [27] stands for this setting: planktonic S. aureus, 50 μM final drug concentration, cutoff for positive-scoring molecules 3-fold increase, read-out: AK-based Prestwick Library Screening Results, S. aureus (increase in extracellular AK activity).
The mark [28] stands for this setting: planktonic A. baumannii, 50 μM final drug concentration, cutoff for positive-scoring molecules 3-fold increase, read-out: AK-based Prestwick Library Screening Results, A. baumannii (increase in extracellular AK activity).
Where [29] appears, read: 50 μM final drug concentration, cutoff for positive-scoring molecules 3-fold increase.

Counter-ions that a name gives are not always drawn. Like-named read-outs stand apart in the source and are kept apart here.

Consider `CN(C)CCCN1c2ccccc2Sc2ccccc21` [Promazine hydrochloride], for which the fold induction at 50 µM was determined as 1.7 in assay [1] (setting [8]); 1.2 in assay [2] (setting [9]); 1 in assay [3] (setting [10]); 1.1 in assay [4] (setting [11]); 0.8 in assay [5] (setting [12]); 1.4 in assay [6] (setting [13]). Also, the fold induction at 50 µM in assay [7] (setting [14]) is 0.9.

Turning to `CC(CN1c2ccccc2Sc2ccccc21)N(C)C` (centres unmarked) [Promethazine hydrochloride], the fold induction at 50 µM came out at 0.5 in assay [1] (setting [15]); 0.6 in assay [2] (setting [16]); 0.8 in assay [3] (setting [17]); 0.6 in assay [4] (setting [18]); 0.5 in assay [5] (setting [19]); 0.5 in assay [6] (setting [20]). Further, in assay [7] (setting [21]), the fold induction at 50 µM turned out to be 0.6.

For `CC(C)NCC(O)c1ccc2ccccc2c1` (centres unmarked) [Pronethalol hydrochloride], the fold induction at 50 µM in assay [1] (setting [8]) was determined as 0.9; in assay [2] (setting [9]), 0.7; in assay [3] (setting [10]), 0.9; in assay [4] (setting [11]), 0.6; in assay [5] (setting [12]), 0.6; in assay [6] (setting [13]) it was 0.6. Also, in assay [7] (setting [14]), the fold induction at 50 µM came out at 0.6.

With `CCCNCC(O)COc1ccccc1C(=O)CCc1ccccc1` (centres unmarked) [Propafenone hydrochloride], the fold induction at 50 µM worked out at 0.8 in assay [1] (setting [22]); 1 in assay [2] (setting [23]); 1 in assay [3] (setting [24]); 0.7 in assay [4] (setting [25]); 0.6 in assay [5] (setting [26]); 0.7 in assay [6] (setting [27]). In assay [7] (setting [28]), the fold induction at 50 µM was 0.7.

For the compound `CC(C)[N+](C)(CCOC(=O)C1c2ccccc2Oc2ccccc21)C(C)C` [Propantheline bromide], the fold induction at 50 µM in assay [1] (setting [15]) turned out to be 1.3; in assay [2] (setting [16]), 0.9; in assay [3] (setting [17]) it was 0.8; in assay [4] (setting [18]), 0.9; in assay [5] (setting [19]), 0.8; in assay [6] (setting [20]), 0.8. Also, the fold induction at 50 µM in assay [7] (setting [21]) came out at 1.

`CCCOc1ccc(C(=O)OCCN(CC)CC)cc1N` [Proparacaine hydrochloride]: the fold induction at 50 µM in assay [1] (setting [8]) is 1.2; in assay [2] (setting [9]), 1.3; in assay [3] (setting [10]) it was 1; in assay [4] (setting [11]), 1.1; in assay [5] (setting [12]), 1.1; in assay [6] (setting [13]), 1.2. Moreover, the fold induction at 50 µM in assay [7] (setting [14]) is 1.4.

As for `CC[N+](C)(CC)CCC[n+]1c(-c2ccccc2)c2cc(N)ccc2c2ccc(N)cc21.[I-].[I-]` [Propidium iodide], in assay [1] (setting [29]), the “AK-based Prestwick Library Screening Results, E. cloacae (fold increase in extracellular AK activity)” value worked out at 1.6. In addition, in assay [2] (setting [29]), the “AK-based Prestwick Library Screening Results, E. coli (fold increase in extracellular AK activity)” value turned out to be 1.3. For the same compound, the “AK-based Prestwick Library Screening Results, E. faecium (fold increase in extracellular AK activity)” value in assay [3] (setting [29]) was determined as 0.8. Further, the “AK-based Prestwick Library Screening Results, P. aeruginosa (fold increase in extracellular AK activity)” value in assay [4] (setting [29]) is listed as 1.0. Further, the “AK-based Prestwick Library Screening Results, K. pneumoniae (fold increase in extracellular AK activity)” value in assay [5] (setting [29]) stood at 0.8. The “AK-based Prestwick Library Screening Results, S. aureus (fold increase in extracellular AK activity)” value in assay [6] (setting [29]) came out at 1.4. Besides, in assay [7] (setting [29]), the “AK-based Prestwick Library Screening Results, A. baumannii (fold increase in extracellular AK activity)” value turned out to be 1.1.

Take `CC(C)c1cccc(C(C)C)c1O` [Propofol]: the fold induction at 50 µM in assay [1] (read-out: AK-based Prestwick Library Screening Results, E. cloacae (fold increase in extracellular AK activity)) amounted to 1.7; in assay [2] (read-out: AK-based Prestwick Library Screening Results, E. coli (fold increase in extracellular AK activity)) it was 1.3; in assay [3] (read-out: AK-based Prestwick Library Screening Results, E. faecium (fold increase in extracellular AK activity)) it was 1; in assay [4] (read-out: AK-based Prestwick Library Screening Results, P. aeruginosa (fold increase in extracellular AK activity)), 1; in assay [5] (read-out: AK-based Prestwick Library Screening Results, K. pneumoniae (fold increase in extracellular AK activity)), 1.1; in assay [6] (read-out: AK-based Prestwick Library Screening Results, S. aureus (fold increase in extracellular AK activity)), 1.2. In assay [7] (read-out: AK-based Prestwick Library Screening Results, A. baumannii (fold increase in extracellular AK activity)), the fold induction at 50 µM amounted to 1.

As to `CCCOc1cc(N)ccc1C(=O)OCCN(CC)CC` [Propoxycaine hydrochloride], the fold induction at 50 µM was found to be 0.8 in assay [1] (planktonic E. cloacae, 50 μM final drug concentration, positive cutoff 3-fold increase, read-out: AK-based Prestwick library screening result, E. cloacae (fold increase in extracellular AK activity)); 0.6 in assay [2] (planktonic E. coli, 50 μM final drug concentration, positive cutoff 3-fold increase, read-out: AK-based Prestwick library screening result, E. coli (fold increase in extracellular AK activity)); 1 in assay [3] (planktonic E. faecium, 50 μM final drug concentration, positive cutoff 3-fold increase, read-out: AK-based Prestwick library screening result, E. faecium (fold increase in extracellular AK activity)); 0.7 in assay [4] (planktonic P. aeruginosa, 50 μM final drug concentration, positive cutoff 3-fold increase, read-out: AK-based Prestwick library screening result, P. aeruginosa (fold increase in extracellular AK activity)); 0.6 in assay [5] (planktonic K. pneumoniae, 50 μM final drug concentration, positive cutoff 3-fold increase, read-out: AK-based Prestwick library screening result, K. pneumoniae (fold increase in extracellular AK activity)); 0.7 in assay [6] (planktonic S. aureus, 50 μM final drug concentration, positive cutoff 3-fold increase, read-out: AK-based Prestwick library screening result, S. aureus (fold increase in extracellular AK activity)). Further, the fold induction at 50 µM in assay [7] (planktonic A. baumannii, 50 μM final drug concentration, positive cutoff 3-fold increase, read-out: AK-based Prestwick library screening result, A. baumannii (fold increase in extracellular AK activity)) came to 0.8.

`CC(C)NCC(O)COc1cccc2ccccc12` (centres unmarked) [Propranolol hydrochloride]: the fold induction at 50 µM in assay [1] (setting [8]) is 1.4; in assay [2] (setting [9]), 1.2; in assay [3] (setting [10]), 1.1; in assay [4] (setting [11]) it was 1.2; in assay [5] (setting [12]), 1.1; in assay [6] (setting [13]), 1.4. Further, in assay [7] (setting [14]), the fold induction at 50 µM was determined as 1.2.

Turning to `CCCc1cc(=O)[nH]c(=S)[nH]1` [Propylthiouracil], the fold induction at 50 µM in assay [1] (setting [22]) is 1.1; in assay [2] (setting [23]), 0.7; in assay [3] (setting [24]), 1; in assay [4] (setting [25]), 0.7; in assay [5] (setting [26]) it was 0.6; in assay [6] (setting [27]), 0.7. In addition, the fold induction at 50 µM in assay [7] (setting [28]) amounted to 0.8.
